Experimental findings from ChEMBL document CHEMBL1201862, “PubChem BioAssay data set” (2004) are described below.

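Five concentrations, 48 hours, 96-well plates. At the GI50, growth is halved.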 The source made the active and inactive calls. No stated cut-off is given here; in the data, active = GI50 up to about 1.1 µM and inactive = higher.

Among the test systems are SK-MEL-2; MCF7; NCI-H23; SK-MEL-5; U-251; ACHN; SR; MDA-MB-231; KM12; MOLT-4; MDA-N; SK-MEL-28; EKVX; NCI-H226; SN12C; PC-3; K562; DU-145; SF-539; HCC 2998.
Assay in all cases: growth of human tumour cells (NCI), 48 h

For the compound `NNC(=O)c1ccc(OCc2nc3ccccc3[nH]2)cc1`, the GI50 with SK-MEL-2 was > 100 µM (inactive); with MCF7, 72.6 µM (inactive); in the experiment on NCI-H23, > 100 µM (inactive); in the experiment on SK-MEL-5, 27.9 µM (inactive); in the experiment on U-251 it was > 100 µM (inactive); in the experiment with ACHN it was > 100 µM (inactive). Besides, the GI50 in the experiment with SR was 25.2 µM (inactive); with MDA-MB-231, > 100 µM (inactive); in the experiment with KM12, > 100 µM (inactive); in the experiment on MOLT-4 it was 14.8 µM (inactive); with MDA-N it was > 100 µM (inactive); in the experiment with SK-MEL-28, > 100 µM (inactive). The GI50 in the experiment on EKVX is > 100 µM (inactive); in the experiment on NCI-H226, > 100 µM (inactive); in the experiment on SN12C, > 100 µM (inactive); in the experiment on PC-3 it was > 100 µM (inactive); with K562, 39.5 µM (inactive); with DU-145 it was 94.2 µM (inactive). Besides, the GI50 in the experiment on SF-539 is > 100 µM (inactive).

Turning to `Cn1nc(-c2ccc(S(=O)(=O)N/C(=N/c3ccc(Cl)cc3)NN)s2)cc1C(F)(F)F`, the GI50 in the experiment on SK-MEL-2 was 19.2 µM (inactive); in the experiment on MCF7 it was 21 µM (inactive); with NCI-H23 it was 20.3 µM (inactive); with SK-MEL-5 it was 18.2 µM (inactive); in the experiment on U-251 it was 14.6 µM (inactive); in the experiment on ACHN, 18.4 µM (inactive). In addition, the GI50 with SR was 17.4 µM (inactive); in the experiment on MDA-MB-231, 16.8 µM (inactive); with KM12, 16.6 µM (inactive); in the experiment with MOLT-4 it was 4.06 µM (inactive); with MDA-N, 14.2 µM (inactive); in the experiment with SK-MEL-28 it was 18.3 µM (inactive). The GI50 was 14.8 µM (inactive) in the experiment on EKVX; 13.4 µM (inactive) in the experiment on NCI-H226; 15.3 µM (inactive) with SN12C; 16.9 µM (inactive) in the experiment with PC-3; 14.1 µM (inactive) with K562; 17.1 µM (inactive) in the experiment on DU-145. The GI50 with SF-539 was 13.5 µM (inactive).

Regarding `Clc1ccc(-c2nn3c(-c4ccncc4)nnc3s2)cc1`, the GI50 with SK-MEL-2 was > 100 µM (inactive); in the experiment on MCF7 it was > 100 µM (inactive); in the experiment on NCI-H23, > 100 µM (inactive); with SK-MEL-5 it was > 100 µM (inactive); in the experiment on U-251, 25.9 µM (inactive); in the experiment on ACHN, 61 µM (inactive). The GI50 with SR was > 100 µM (inactive); in the experiment with MDA-MB-231, 66.7 µM (inactive); in the experiment with KM12 it was > 100 µM (inactive); with MOLT-4, > 100 µM (inactive); in the experiment with MDA-N, > 100 µM (inactive); with EKVX, > 100 µM (inactive). In addition, the GI50 with NCI-H226 was > 100 µM (inactive); with SN12C, > 100 µM (inactive); in the experiment on PC-3, > 100 µM (inactive); with K562, > 100 µM (inactive); in the experiment on DU-145, 42.9 µM (inactive); in the experiment on SF-539 it was > 100 µM (inactive).

Consider `COc1ccc(OC)c2sc(N3C(=O)/C(=C/c4cccc([N+](=O)[O-])c4)N=C3c3ccccc3)nc12`, for which the GI50 is 69 µM (inactive) in the experiment on SK-MEL-2; 21.2 µM (inactive) in the experiment with MCF7; 86.7 µM (inactive) in the experiment with NCI-H23; 49.4 µM (inactive) in the experiment with SK-MEL-5; 32 µM (inactive) with U-251; 99.8 µM (inactive) in the experiment with ACHN. Besides, the GI50 in the experiment with SR was 23.7 µM (inactive); in the experiment with MDA-MB-231 it was > 100 µM (inactive); in the experiment with KM12, 42.2 µM (inactive); in the experiment on MOLT-4, 21.8 µM (inactive); in the experiment with MDA-N it was 32.4 µM (inactive); in the experiment on SK-MEL-28, 76 µM (inactive). The GI50 in the experiment with EKVX was > 100 µM (inactive); in the experiment with HCC 2998, 45.5 µM (inactive); in the experiment on SN12C, > 100 µM (inactive); with PC-3, 59.7 µM (inactive); in the experiment on K562, 23.3 µM (inactive); in the experiment on DU-145, 68.4 µM (inactive). The GI50 in the experiment on SF-539 was 41.1 µM (inactive).

For the compound `COc1ccc(C2NC(N)=C(C#N)C3=C2C(C)CCC3)cc1OC` (stereo not given), the GI50 with SK-MEL-2 was > 100 µM (inactive); in the experiment with MCF7, 43.2 µM (inactive); with NCI-H23, > 100 µM (inactive); with SK-MEL-5, 24.2 µM (inactive); in the experiment with U-251 it was 41.8 µM (inactive); with ACHN it was 32.3 µM (inactive). The GI50 is 0.261 µM (active) in the experiment with SR; 59.7 µM (inactive) in the experiment with MDA-MB-231; 63.5 µM (inactive) with KM12; 2.75 µM (inactive) in the experiment with MOLT-4; > 100 µM (inactive) in the experiment on MDA-N; > 100 µM (inactive) with SK-MEL-28. Further, the GI50 in the experiment with EKVX was 33.4 µM (inactive); with NCI-H226, > 100 µM (inactive); with SN12C, 44.4 µM (inactive); in the experiment on PC-3, 44.8 µM (inactive); in the experiment on K562 it was 25.6 µM (inactive); with DU-145, > 100 µM (inactive). In addition, in the experiment on SF-539, the GI50 is 35.2 µM (inactive).

Take `CCCCn1c(C)c(C(=O)CC)c(C(=O)NCCN2CCN(c3ccccc3Cl)CC2)c1C`: the GI50 with SK-MEL-2 was 16.7 µM (inactive); with MCF7, 18.8 µM (inactive); in the experiment on NCI-H23, 14.6 µM (inactive); in the experiment on SK-MEL-5, 14.1 µM (inactive); in the experiment on U-251 it was 16.6 µM (inactive); in the experiment with ACHN it was 16.4 µM (inactive). For the same compound, the GI50 in the experiment on SR is 13.7 µM (inactive); with MDA-MB-231, 17.1 µM (inactive); in the experiment with KM12, 19.8 µM (inactive); with MOLT-4 it was 18.7 µM (inactive); in the experiment on MDA-N, 16.2 µM (inactive); with SK-MEL-28, 20.9 µM (inactive). The GI50 with EKVX is 16.3 µM (inactive); in the experiment with NCI-H226 it was 20.3 µM (inactive); with SN12C it was 16.1 µM (inactive); with PC-3 it was 16.1 µM (inactive); with K562, 26.7 µM (inactive); in the experiment on DU-145 it was 20.1 µM (inactive). Also, in the experiment with SF-539, the GI50 is 18.1 µM (inactive).

For `CC(C)C(=O)OCC1OC(n2c(Br)nc3c(=O)[nH]c(N)nc32)C(OC(=O)C(C)C)C1OC(=O)C(C)C` (stereo not given), the GI50 was 68.1 µM (inactive) in the experiment on SK-MEL-2; 37.6 µM (inactive) in the experiment with MCF7; > 10 µM (inactive) in the experiment on SK-MEL-5; > 100 µM (inactive) in the experiment on ACHN; 38 µM (inactive) with SR; > 100 µM (inactive) in the experiment with MDA-MB-231. The GI50 was 19.3 µM (inactive) in the experiment with MOLT-4; 41 µM (inactive) in the experiment with MDA-N; > 100 µM (inactive) in the experiment on EKVX; > 100 µM (inactive) in the experiment with NCI-H226; 48 µM (inactive) in the experiment on SN12C; 21.6 µM (inactive) in the experiment on PC-3. For the same compound, in the experiment on DU-145, the GI50 was > 100 µM (inactive).

In the case of `O=C(OCCN=c1c2ccccc2ccc2ccccc12)c1cc([N+](=O)[O-])cc([N+](=O)[O-])c1`, the GI50 with SK-MEL-2, in the experiment with MCF7, in the experiment with NCI-H23, in the experiment on SK-MEL-5, in the experiment on U-251 and with ACHN was > 100 µM (inactive) each time. Further, the GI50 in the experiment on SR, with MDA-MB-231, in the experiment with KM12, in the experiment with MOLT-4, with MDA-N and in the experiment on SK-MEL-28 was > 100 µM (inactive) each time. Further, the GI50 in the experiment with EKVX, in the experiment with NCI-H226, in the experiment with SN12C, with PC-3, in the experiment on K562 and in the experiment with DU-145 was > 100 µM (inactive) in each case. Moreover, in the experiment on SF-539, the GI50 is > 100 µM (inactive).
